Test results published in PMC7026418, “The kinase polypharmacology landscape of clinical PARP inhibitors” (Scientific Reports, 2020).
Like-named read-outs stand apart in the source and are kept apart here. One block for each compound: values may come before it.

Experiments:
Experiment in all cases: biochemical
Parameters in all cases: DiscoveRx KINOMEscan active site-directed competition binding; percent of control kinase bound to immobilised ligand
[1] = target: T1, PRKX (Homo sapiens, UniProt P51817)
T1 sequence (P51817 1-358): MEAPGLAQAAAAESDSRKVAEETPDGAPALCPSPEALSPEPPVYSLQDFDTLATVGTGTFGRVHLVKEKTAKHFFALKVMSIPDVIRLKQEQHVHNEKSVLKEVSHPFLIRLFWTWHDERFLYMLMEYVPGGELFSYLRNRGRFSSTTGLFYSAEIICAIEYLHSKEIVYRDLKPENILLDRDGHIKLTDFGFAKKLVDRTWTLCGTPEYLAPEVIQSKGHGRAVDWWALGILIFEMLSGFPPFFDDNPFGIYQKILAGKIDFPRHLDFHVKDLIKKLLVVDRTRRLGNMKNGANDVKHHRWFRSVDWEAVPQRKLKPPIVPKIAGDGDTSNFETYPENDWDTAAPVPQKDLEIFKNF

[2] = target: INSR (Homo sapiens, UniProt P06213)
[3] = target: T2, PFTK1 (Homo sapiens, UniProt O94921)
T2 construct: gene CDK14
T2 sequence (O94921 whole entry): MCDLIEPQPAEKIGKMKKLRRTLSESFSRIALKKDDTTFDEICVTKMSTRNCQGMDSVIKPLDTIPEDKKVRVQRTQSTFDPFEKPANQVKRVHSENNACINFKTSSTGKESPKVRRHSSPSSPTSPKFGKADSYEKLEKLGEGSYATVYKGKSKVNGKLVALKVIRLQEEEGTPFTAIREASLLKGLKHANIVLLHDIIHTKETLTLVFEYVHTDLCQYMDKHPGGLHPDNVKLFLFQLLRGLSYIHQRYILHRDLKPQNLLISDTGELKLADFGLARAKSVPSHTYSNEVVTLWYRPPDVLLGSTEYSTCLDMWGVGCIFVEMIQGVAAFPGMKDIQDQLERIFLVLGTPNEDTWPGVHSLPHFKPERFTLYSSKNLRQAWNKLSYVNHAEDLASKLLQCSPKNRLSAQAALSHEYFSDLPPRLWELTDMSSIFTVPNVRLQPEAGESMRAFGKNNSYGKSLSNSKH

[4] = target: KIT(V559D,T670I) (Homo sapiens, UniProt P10721, T670I/V559D)
[5] = target: KIT(D816V) (Homo sapiens, UniProt P10721, D816V)
Chain of KIT(D816V) (P10721 whole entry D816V): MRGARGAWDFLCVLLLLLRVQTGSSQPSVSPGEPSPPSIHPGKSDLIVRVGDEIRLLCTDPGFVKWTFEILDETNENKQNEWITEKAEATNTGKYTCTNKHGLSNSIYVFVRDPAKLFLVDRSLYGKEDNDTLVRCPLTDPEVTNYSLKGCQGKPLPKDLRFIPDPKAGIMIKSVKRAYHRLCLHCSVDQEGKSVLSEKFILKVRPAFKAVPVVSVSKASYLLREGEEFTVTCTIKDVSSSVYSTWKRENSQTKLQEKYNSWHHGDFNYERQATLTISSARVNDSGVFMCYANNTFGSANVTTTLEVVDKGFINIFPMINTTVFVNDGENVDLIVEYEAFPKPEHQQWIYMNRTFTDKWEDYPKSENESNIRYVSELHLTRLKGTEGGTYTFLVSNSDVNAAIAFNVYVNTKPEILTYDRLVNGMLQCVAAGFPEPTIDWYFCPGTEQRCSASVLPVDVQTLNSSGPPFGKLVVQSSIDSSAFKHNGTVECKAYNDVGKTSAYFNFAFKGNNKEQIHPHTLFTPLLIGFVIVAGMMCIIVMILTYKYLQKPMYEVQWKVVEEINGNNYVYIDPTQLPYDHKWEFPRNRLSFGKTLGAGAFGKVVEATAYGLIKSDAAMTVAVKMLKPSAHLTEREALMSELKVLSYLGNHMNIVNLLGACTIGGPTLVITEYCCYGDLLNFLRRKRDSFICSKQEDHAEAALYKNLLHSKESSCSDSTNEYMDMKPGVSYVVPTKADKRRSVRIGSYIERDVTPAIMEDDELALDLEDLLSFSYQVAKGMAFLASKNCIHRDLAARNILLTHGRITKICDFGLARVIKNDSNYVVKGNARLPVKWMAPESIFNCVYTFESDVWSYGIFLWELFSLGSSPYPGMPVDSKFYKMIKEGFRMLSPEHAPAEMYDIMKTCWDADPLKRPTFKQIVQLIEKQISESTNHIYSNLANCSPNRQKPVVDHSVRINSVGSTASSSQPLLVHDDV

[6] = target: KIT (Homo sapiens, UniProt P10721)
[7] = target: DDR1 (Homo sapiens, UniProt Q08345)
[8] = target: EGFR(S752-I759del) (Homo sapiens, UniProt P00533, DEL752-759)
Chain of EGFR(S752-I759del) (P00533 with tags, fused parts or gaps DEL752-759): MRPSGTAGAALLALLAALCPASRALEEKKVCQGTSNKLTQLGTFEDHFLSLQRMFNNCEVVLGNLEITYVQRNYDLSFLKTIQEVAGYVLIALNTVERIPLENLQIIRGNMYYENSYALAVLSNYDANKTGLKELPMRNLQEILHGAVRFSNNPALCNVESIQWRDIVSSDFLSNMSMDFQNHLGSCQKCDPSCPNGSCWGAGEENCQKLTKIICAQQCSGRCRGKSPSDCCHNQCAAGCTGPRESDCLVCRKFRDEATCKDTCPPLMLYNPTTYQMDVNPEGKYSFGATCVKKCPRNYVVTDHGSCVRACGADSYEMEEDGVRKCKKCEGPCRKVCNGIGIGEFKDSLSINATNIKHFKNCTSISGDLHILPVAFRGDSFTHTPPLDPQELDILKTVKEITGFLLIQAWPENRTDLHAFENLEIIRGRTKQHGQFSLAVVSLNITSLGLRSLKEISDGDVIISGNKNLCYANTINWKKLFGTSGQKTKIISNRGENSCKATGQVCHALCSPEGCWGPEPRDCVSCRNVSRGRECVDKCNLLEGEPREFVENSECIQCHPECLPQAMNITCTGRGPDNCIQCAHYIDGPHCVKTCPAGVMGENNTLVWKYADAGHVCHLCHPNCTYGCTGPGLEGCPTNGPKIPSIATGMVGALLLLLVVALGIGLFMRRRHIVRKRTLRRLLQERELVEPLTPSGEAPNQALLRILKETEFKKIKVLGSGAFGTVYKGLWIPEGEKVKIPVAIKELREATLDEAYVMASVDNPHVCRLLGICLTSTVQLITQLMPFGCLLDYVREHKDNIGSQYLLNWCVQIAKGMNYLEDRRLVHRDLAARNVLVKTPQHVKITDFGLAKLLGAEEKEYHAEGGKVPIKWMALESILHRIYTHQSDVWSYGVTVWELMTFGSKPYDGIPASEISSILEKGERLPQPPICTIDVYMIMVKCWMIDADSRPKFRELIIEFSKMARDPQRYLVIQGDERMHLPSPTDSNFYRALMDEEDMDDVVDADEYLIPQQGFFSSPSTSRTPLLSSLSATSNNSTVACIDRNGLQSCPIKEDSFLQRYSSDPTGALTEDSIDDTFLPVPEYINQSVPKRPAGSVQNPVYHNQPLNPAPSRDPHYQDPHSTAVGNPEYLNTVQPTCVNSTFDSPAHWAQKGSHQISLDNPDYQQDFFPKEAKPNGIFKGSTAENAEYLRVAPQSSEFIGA

[9] = target: T3, MAPKAPK5 (Homo sapiens, UniProt Q8IW41)
T3 sequence (Q8IW41 1-473): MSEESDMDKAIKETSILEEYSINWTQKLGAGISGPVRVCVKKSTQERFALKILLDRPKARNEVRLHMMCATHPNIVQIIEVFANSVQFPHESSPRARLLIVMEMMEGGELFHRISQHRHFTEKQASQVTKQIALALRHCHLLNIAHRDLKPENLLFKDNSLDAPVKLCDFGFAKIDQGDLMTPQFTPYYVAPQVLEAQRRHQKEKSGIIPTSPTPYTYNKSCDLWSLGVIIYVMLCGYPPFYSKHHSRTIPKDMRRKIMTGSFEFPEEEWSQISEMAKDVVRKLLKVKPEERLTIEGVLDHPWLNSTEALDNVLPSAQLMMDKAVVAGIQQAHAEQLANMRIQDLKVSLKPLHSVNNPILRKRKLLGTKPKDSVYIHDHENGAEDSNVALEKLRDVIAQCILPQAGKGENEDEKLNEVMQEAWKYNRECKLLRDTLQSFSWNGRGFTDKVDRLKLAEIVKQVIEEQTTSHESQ

[10] = target: EGFR(L858R,T790M) (Homo sapiens, UniProt P00533, L858R/T790M)
Chain of EGFR(L858R,T790M) (P00533 whole entry T790M/L858R): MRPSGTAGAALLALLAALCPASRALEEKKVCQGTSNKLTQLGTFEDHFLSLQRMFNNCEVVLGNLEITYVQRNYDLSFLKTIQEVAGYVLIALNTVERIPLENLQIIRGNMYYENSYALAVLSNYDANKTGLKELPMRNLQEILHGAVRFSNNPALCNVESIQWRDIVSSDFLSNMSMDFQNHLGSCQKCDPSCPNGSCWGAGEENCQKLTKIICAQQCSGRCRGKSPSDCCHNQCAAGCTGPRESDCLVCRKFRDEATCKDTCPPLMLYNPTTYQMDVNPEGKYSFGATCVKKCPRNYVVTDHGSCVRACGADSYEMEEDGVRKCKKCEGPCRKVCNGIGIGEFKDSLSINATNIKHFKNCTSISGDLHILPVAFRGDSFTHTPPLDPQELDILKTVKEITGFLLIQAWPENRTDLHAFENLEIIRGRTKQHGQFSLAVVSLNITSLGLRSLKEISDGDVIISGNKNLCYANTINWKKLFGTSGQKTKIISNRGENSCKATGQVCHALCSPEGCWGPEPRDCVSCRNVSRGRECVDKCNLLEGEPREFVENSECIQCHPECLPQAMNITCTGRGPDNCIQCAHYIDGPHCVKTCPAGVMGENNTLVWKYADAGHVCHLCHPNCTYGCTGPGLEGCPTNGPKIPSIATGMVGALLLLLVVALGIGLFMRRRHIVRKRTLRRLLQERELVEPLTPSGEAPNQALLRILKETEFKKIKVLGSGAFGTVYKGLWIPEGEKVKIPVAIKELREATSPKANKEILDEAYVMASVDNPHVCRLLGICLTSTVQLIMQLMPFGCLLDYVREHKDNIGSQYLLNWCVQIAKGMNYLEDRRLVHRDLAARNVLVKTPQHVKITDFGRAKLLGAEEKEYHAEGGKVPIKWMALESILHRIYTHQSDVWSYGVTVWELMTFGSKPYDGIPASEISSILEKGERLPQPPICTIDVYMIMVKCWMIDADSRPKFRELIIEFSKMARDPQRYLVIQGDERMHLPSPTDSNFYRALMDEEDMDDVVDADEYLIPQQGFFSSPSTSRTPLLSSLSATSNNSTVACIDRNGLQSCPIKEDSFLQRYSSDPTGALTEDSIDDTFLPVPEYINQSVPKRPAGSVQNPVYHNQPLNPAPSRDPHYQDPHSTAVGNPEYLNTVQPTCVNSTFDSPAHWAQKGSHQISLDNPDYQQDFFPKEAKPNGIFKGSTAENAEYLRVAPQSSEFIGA

[11] = target: CSNK1G2 (Homo sapiens, UniProt P78368)
[12] = target: T4, RIOK3 (Homo sapiens, UniProt O14730)
T4 sequence (O14730 1-519): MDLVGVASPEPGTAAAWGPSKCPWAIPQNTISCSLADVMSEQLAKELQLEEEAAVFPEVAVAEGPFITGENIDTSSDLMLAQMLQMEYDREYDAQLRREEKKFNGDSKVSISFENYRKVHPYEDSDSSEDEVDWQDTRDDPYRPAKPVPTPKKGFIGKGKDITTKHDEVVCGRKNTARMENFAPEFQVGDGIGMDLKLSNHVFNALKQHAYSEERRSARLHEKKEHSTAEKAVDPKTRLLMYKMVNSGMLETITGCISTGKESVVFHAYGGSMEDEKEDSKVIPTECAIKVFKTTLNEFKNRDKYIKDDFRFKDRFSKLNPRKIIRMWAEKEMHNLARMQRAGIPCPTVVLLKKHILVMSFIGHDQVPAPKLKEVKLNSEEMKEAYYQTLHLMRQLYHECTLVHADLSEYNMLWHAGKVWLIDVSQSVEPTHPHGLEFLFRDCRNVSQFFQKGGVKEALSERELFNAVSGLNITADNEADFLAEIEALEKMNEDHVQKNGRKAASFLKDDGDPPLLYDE

[13] = target: SLK (Homo sapiens, UniProt Q9H2G2)
Chain of SLK (Q9H2G2 whole entry): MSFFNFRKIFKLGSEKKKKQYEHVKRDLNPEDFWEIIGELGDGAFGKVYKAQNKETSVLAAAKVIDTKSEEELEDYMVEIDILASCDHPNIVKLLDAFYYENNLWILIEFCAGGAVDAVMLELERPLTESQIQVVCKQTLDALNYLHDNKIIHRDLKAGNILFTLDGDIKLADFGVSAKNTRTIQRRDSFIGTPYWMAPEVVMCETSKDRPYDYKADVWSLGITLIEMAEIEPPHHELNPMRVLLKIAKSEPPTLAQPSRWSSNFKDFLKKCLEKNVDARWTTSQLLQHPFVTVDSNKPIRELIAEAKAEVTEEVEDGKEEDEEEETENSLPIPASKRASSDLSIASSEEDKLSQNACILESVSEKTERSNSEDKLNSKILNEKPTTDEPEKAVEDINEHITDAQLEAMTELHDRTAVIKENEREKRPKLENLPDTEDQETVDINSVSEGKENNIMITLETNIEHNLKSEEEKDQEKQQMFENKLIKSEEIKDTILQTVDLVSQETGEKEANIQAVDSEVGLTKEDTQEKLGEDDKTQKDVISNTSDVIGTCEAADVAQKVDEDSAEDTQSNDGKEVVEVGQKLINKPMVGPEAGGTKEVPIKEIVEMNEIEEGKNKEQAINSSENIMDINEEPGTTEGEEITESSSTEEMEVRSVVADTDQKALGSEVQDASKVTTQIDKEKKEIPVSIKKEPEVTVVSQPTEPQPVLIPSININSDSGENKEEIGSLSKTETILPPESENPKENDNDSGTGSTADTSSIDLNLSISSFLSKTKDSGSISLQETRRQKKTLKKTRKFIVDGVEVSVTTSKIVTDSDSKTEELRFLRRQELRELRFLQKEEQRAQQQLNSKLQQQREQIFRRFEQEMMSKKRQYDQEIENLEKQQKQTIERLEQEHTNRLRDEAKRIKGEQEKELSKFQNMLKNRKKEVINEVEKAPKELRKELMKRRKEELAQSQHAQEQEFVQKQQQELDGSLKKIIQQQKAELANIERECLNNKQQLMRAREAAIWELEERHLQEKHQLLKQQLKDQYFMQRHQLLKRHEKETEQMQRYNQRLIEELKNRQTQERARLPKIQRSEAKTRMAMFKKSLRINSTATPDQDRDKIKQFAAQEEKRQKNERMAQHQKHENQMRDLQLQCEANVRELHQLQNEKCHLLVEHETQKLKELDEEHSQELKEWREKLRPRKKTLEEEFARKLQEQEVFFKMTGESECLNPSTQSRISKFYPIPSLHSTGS

[14] = read-out: Olaparib / %Ctrl @ 10000nM
[15] = read-out: Talazoparib (BMN 673) / %Ctrl @ 10000nM
[16] = read-out: Rucaparib / %Ctrl @ 10000nM, binding competition, % of control
[17] = read-out: Niraparib (MK-4827) / %Ctrl @ 10000nM

percent of control binding at 10 µM [1, 14]: 88%
percent of control binding at 10 µM [2, 14]: 85%
percent of control binding at 10 µM [3, 14]: 100%
percent of control binding at 10 µM [4, 14]: 92%
percent of control binding at 10 µM [5, 14]: 100%
percent of control binding at 10 µM [6, 14]: 99%
percent of control binding at 10 µM [7, 14]: 77%
percent of control binding at 10 µM [8, 14]: 84%
percent of control binding at 10 µM [9, 14]: 87%
percent of control binding at 10 µM [10, 14]: 93%
percent of control binding at 10 µM [11, 14]: 81%
percent of control binding at 10 µM [12, 14]: 100%
percent of control binding at 10 µM [13, 14]: 100%
Structure (SMILES): O=C(c1cc(Cc2n[nH]c(=O)c3ccccc23)ccc1F)N1CCN(C(=O)C2CC2)CC1 [Olaparib]

percent of control binding at 10 µM [1, 15]: 94%
percent of control binding at 10 µM [2, 15]: 62%
percent of control binding at 10 µM [3, 15]: 89%
percent of control binding at 10 µM [4, 15]: 100%
percent of control binding at 10 µM [5, 15]: 94%
percent of control binding at 10 µM [6, 15]: 100%
percent of control binding at 10 µM [7, 15]: 84%
percent of control binding at 10 µM [8, 15]: 100%
percent of control binding at 10 µM [9, 15]: 93%
percent of control binding at 10 µM [10, 15]: 100%
percent of control binding at 10 µM [11, 15]: 91%
percent of control binding at 10 µM [12, 15]: 100%
percent of control binding at 10 µM [13, 15]: 90%
Structure (SMILES): Cn1ncnc1[C@H]1c2n[nH]c(=O)c3cc(F)cc(c23)N[C@@H]1c1ccc(F)cc1 [Talazoparib]

percent of control binding at 10 µM [1, 16]: 92%
percent of control binding at 10 µM [2, 16]: 86%
percent of control binding at 10 µM [3, 16]: 86%
percent of control binding at 10 µM [4, 16]: 91%
percent of control binding at 10 µM [5, 16]: 96%
percent of control binding at 10 µM [6, 16]: 100%
percent of control binding at 10 µM [7, 16]: 96%
percent of control binding at 10 µM [8, 16]: 89%
percent of control binding at 10 µM [9, 16]: 88%
percent of control binding at 10 µM [10, 16]: 70%
percent of control binding at 10 µM [11, 16]: 89%
percent of control binding at 10 µM [12, 16]: 85%
percent of control binding at 10 µM [13, 16]: 98%
Structure (SMILES): CNCc1ccc(-c2[nH]c3cc(F)cc4c3c2CCNC4=O)cc1 [Rucaparib]

Structure (SMILES): NC(=O)c1cccc2cn(-c3ccc([C@@H]4CCCNC4)cc3)nc12 [Niraparib]
percent of control binding at 10 µM [1, 17]: 96%
percent of control binding at 10 µM [2, 17]: 86%
percent of control binding at 10 µM [3, 17]: 88%
percent of control binding at 10 µM [4, 17]: 97%
percent of control binding at 10 µM [5, 17]: 89%
percent of control binding at 10 µM [6, 17]: 87%
percent of control binding at 10 µM [7, 17]: 85%
percent of control binding at 10 µM [8, 17]: 71%
percent of control binding at 10 µM [9, 17]: 86%
percent of control binding at 10 µM [10, 17]: 100%
percent of control binding at 10 µM [11, 17]: 79%
percent of control binding at 10 µM [12, 17]: 95%
percent of control binding at 10 µM [13, 17]: 92%
